Experimental data from patent US7683171B2, “1H-imidazo[4,5-d]thieno[3,2-b]pyridine based tricyclic compounds and pharmaceutical compositions comprising same” (Bristol-Myers Squibb Company, priority 2005, dated 2010).

System: T98
Test: Ames testing
Assay type: cell-based
Conditions: T98 with S9 activation

## Cl.Cn1cnc2c(N)nc3cc(-c4cccc(F)c4)sc3c21 [Example A5, 7-(3-Fluorophenyl)-1-methyl-1H-imidazo[4,5-d]thieno[3,2-b]pyridin-4-amine hydrochloride salt]
  Ames testing: positive
